PubChem BioAssay AID248 (DTP/NCI, 2004)
Several values for one entry are separate records, joined by “and”; a condition that tells them apart may be missing. Identical values can stand only once. Toxic doses and inconclusive results are not listed. Rule as the data show it: active = T/C of 150% or more; inactive = T/C below 125%.

System: L1210 leukemia ip in BDF1 mice, survival T/C
Assay: NCI In Vivo Anticancer Drug Screen. Data for tumor model L1210 Leukemia (intraperitoneal) in B6D2F1 (BDF1) mice
Conditions: higher = longer survival
In short: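 Read-out is survival time, reported as the treated-group measurement over the vehicle-control measurement.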

[1] = endpoint: mean survival time, dose: 100.0 mg/kg/injection, schedule: Q04DX003 (ip), vehicle: saline
[2] = endpoint: mean survival time, dose: 200.0 mg/kg/injection, schedule: Q04DX003 (ip), vehicle: saline
[3] = endpoint: mean survival time, dose: 400.0 mg/kg/injection, schedule: Q04DX003 (ip), vehicle: saline
[4] = endpoint: mean survival time, dose: 100.0 mg/kg/injection, schedule: Q01DX001 (ip), vehicle: saline with Tween-80
[5] = endpoint: mean survival time, dose: 100.0 mg/kg/injection, schedule: Q01DX001 (ip), vehicle: carboxymethylcellulose (CMC)
[6] = endpoint: mean survival time, dose: 200.0 mg/kg/injection, schedule: Q01DX001 (ip), vehicle: carboxymethylcellulose (CMC)
[7] = endpoint: mean survival time, dose: 100.0 mg/kg/injection, schedule: Q01DX009 (ip), vehicle: Klucel (hydroxypropylcellulose) (HPC)
[8] = endpoint: mean survival time, dose: 100.0 mg/kg/injection, schedule: Q01DX009 (ip), vehicle: saline with Tween-80
[9] = endpoint: mean survival time, dose: 200.0 mg/kg/injection, schedule: Q01DX009 (ip), vehicle: Klucel (hydroxypropylcellulose) (HPC)
[10] = endpoint: mean survival time, dose: 200.0 mg/kg/injection, schedule: Q01DX009 (ip), vehicle: saline with Tween-80
[11] = endpoint: mean survival time, dose: 400.0 mg/kg/injection, schedule: Q01DX009 (ip), vehicle: saline with Tween-80
[12] = endpoint: mean survival time, dose: 100.0 mg/kg/injection, schedule: Q04DX003 (ip), vehicle: Klucel (hydroxypropylcellulose) (HPC)
[13] = endpoint: mean survival time, dose: 200.0 mg/kg/injection, schedule: Q04DX003 (ip), vehicle: Klucel (hydroxypropylcellulose) (HPC)
[14] = endpoint: mean survival time, dose: 400.0 mg/kg/injection, schedule: Q04DX003 (ip), vehicle: Klucel (hydroxypropylcellulose) (HPC)
[15] = endpoint: mean survival time, dose: 50.0 mg/kg/injection, schedule: Q01DX001 (ip), vehicle: saline
[16] = endpoint: mean survival time, dose: 100.0 mg/kg/injection, schedule: Q01DX001 (ip), vehicle: saline
[17] = endpoint: mean survival time, dose: 200.0 mg/kg/injection, schedule: Q01DX001 (ip), vehicle: saline
[18] = endpoint: mean survival time, dose: 400.0 mg/kg/injection, schedule: Q01DX001 (ip), vehicle: saline
[19] = endpoint: mean survival time, dose: 50.0 mg/kg/injection, schedule: Q01DX009 (ip), vehicle: saline
[20] = endpoint: mean survival time, dose: 100.0 mg/kg/injection, schedule: Q01DX009 (ip), vehicle: saline
[21] = endpoint: mean survival time, dose: 200.0 mg/kg/injection, schedule: Q01DX009 (ip), vehicle: saline
[22] = endpoint: mean survival time, dose: 400.0 mg/kg/injection, schedule: Q01DX009 (ip), vehicle: Klucel (hydroxypropylcellulose) (HPC)

Measured: T/C

c1ccc2cc(Nc3ccc(Nc4ccc5ccccc5c4)cc3)ccc2c1
inactive: endpoint: mean survival time, dose: 75.0 mg/kg/injection, schedule: Q01DX009 (ip), vehicle: Klucel (hydroxypropylcellulose) (HPC) 103 % of control | [1] 106 % of control | endpoint: mean survival time, dose: 150.0 mg/kg/injection, schedule: Q01DX009 (ip), vehicle: Klucel (hydroxypropylcellulose) (HPC) 104 % of control | [2] 97 % of control | endpoint: mean survival time, dose: 300.0 mg/kg/injection, schedule: Q01DX009 (ip), vehicle: Klucel (hydroxypropylcellulose) (HPC) 110 % of control | [3] 100 % of control

CN(C)c1ccc(/C=C(\C#N)c2ccccc2)cc1
inactive: [4] 87 % of control | endpoint: mean survival time, dose: 200.0 mg/kg/injection, schedule: Q01DX001 (ip), vehicle: saline with Tween-80 88 % of control

CCNc1nnnn1CC
inactive: [1] 101 % of control | [2] 98 % of control | [3] 101 % of control

CCOc1cc(N)nc(N)c1[N+](=O)[O-]
inactive: [5] 95 % of control | [6] 87 % of control

COc1cc2c(cc1OC)C1CCN3C(=O)CCC3N1CC2 (stereo not drawn)
inactive: endpoint: mean survival time, dose: 50.0 mg/kg/injection, schedule: Q01DX009 (ip), vehicle: Klucel (hydroxypropylcellulose) (HPC) 101 % of control | [7] 101 % of control | [8] 95 % of control | [9] 104 % of control | [10] 98 % of control | [11] 98 % of control

O=c1c2ccccc2sc2c1ccc1ccccc12
inactive: [12] 100 % of control | [13] 103 % of control | [14] 96 % of control

COC(OC)c1nc(NC(C)=O)[nH]c(=O)c1Cc1ccc(N)cc1
inactive: [8] 96 % of control | endpoint: mean survival time, dose: 100.0 mg/kg/injection, schedule: Q04DX003 (ip), vehicle: saline with Tween-80 94 % of control | [10] 89 % of control | endpoint: mean survival time, dose: 200.0 mg/kg/injection, schedule: Q04DX003 (ip), vehicle: saline with Tween-80 96 % of control | [11] 97 % of control | endpoint: mean survival time, dose: 400.0 mg/kg/injection, schedule: Q04DX003 (ip), vehicle: saline with Tween-80 110 % of control

COc1ccc(CN2CCCN(Cc3ccc(OC)cc3OC)C2c2ccncc2)c(OC)c1
inactive: [15] 94 % of control | [16] 97 % of control | [17] 105 % of control | [18] 103 % of control

COc1ccc(C(=O)CC(C(=O)O)c2ccc3c(c2)OCO3)cc1OC (stereo not drawn)
inactive: [8] 96 % of control | [10] 98 % of control | [11] 98 % of control

SCCCCN1CCCCC1
inactive: endpoint: mean survival time, dose: 3.0 mg/kg/injection, schedule: Q01DX001 (ip), vehicle: carboxymethylcellulose (CMC) 102 % of control | endpoint: mean survival time, dose: 6.0 mg/kg/injection, schedule: Q01DX001 (ip), vehicle: carboxymethylcellulose (CMC) 100 % of control | endpoint: mean survival time, dose: 12.0 mg/kg/injection, schedule: Q01DX001 (ip), vehicle: carboxymethylcellulose (CMC) 107 % of control | endpoint: mean survival time, dose: 25.0 mg/kg/injection, schedule: Q01DX001 (ip), vehicle: carboxymethylcellulose (CMC) 95 % of control

CCCCCCCCCCCCCCC[As](=O)(O)CCCCCCCCCCCCCCC
inactive: [15] 97 % of control | [16] 95 % of control | [17] 95 % of control | [18] 95 % of control

CCCCP(=S)(CCCC)N(CC)CC
inactive: [12] 101 % of control | [13] 104 % of control | [14] 93 % of control

O=[N+]([O-])c1ccc(-[n+]2ccccc2)c([N+](=O)[O-])c1
inactive: endpoint: mean survival time, dose: 18.75 mg/kg/injection, schedule: Q01DX009 (ip), vehicle: saline 105 % of control | endpoint: mean survival time, dose: 25.0 mg/kg/injection, schedule: Q01DX009 (ip), vehicle: saline 105 % of control | endpoint: mean survival time, dose: 37.5 mg/kg/injection, schedule: Q01DX009 (ip), vehicle: saline 103 % of control | [19] 103 % of control | endpoint: mean survival time, dose: 75.0 mg/kg/injection, schedule: Q01DX009 (ip), vehicle: saline 102 % of control | [20] 102 % of control | endpoint: mean survival time, dose: 150.0 mg/kg/injection, schedule: Q01DX009 (ip), vehicle: saline 112 % of control

CS(=O)(=O)c1ccc(C(=N)N)cc1
inactive: [20] 93 % of control | [21] 97 % of control | endpoint: mean survival time, dose: 400.0 mg/kg/injection, schedule: Q01DX009 (ip), vehicle: saline 95 % of control

c1ccc2sccc2c1
inactive: [8] 110 % of control | [10] 111 % of control | [11] 116 % of control

c1ccc(C2SCCCS2)cc1
inactive: [7] 96 % of control | [9] 97 % of control | [22] 94 % of control

C=C1C(=O)OC2CCCCC3OC3C12 (stereo not drawn)
inactive: [4] 102 % of control

O=C(Oc1ccc([N+](=O)[O-])cc1)c1ccc(C[n+]2ccccc2)cc1
inactive: [19] 97 % of control | [20] 97 % of control and 104 % of control | [1] 97 % of control | [21] 100 % of control and 106 % of control | [2] 90 % of control

CC(=O)Nc1ccc(S(=O)(=O)Nc2ccc(C(=O)O)cc2)cc1
inactive: [12] 100 % of control | [13] 87 % of control | [14] 92 % of control

BrC1CCCCCC(Br)C12OCCO2 (stereo not drawn)
inactive: [7] 95 % of control | [12] 102 % of control | [9] 98 % of control | [13] 104 % of control | [22] 101 % of control | [14] 100 % of control

CCc1nccc(=O)[nH]1
inactive: [19] 102 % of control and 101 % of control | [20] 88 % of control and 110 % of control | [1] 94 % of control and 110 % of control | [21] 100 % of control and 103 % of control | [2] 89 % of control and 104 % of control

CCC[CH2][Sn]([CH2]C)([CH2]C)[CH2]C
inactive: endpoint: mean survival time, dose: 100.0 mg/kg/injection, schedule: Q04DX002 (ip), vehicle: saline 96 % of control | endpoint: mean survival time, dose: 200.0 mg/kg/injection, schedule: Q04DX002 (ip), vehicle: saline 101 % of control

CCCCCN(C)/N=N/c1nc[nH]c1C(N)=O
inactive: endpoint: mean survival time, dose: 7.5 mg/kg/injection, schedule: Q01DX Z (ip), vehicle: carboxymethylcellulose (CMC) 102 % of control | endpoint: mean survival time, dose: 10.0 mg/kg/injection, schedule: Q01DX Z (ip), vehicle: carboxymethylcellulose (CMC) 110 % of control | endpoint: mean survival time, dose: 11.0 mg/kg/injection, schedule: Q01DX009 (ip), vehicle: carboxymethylcellulose (CMC) 101 % of control | endpoint: mean survival time, dose: 15.0 mg/kg/injection, schedule: Q01DX Z (ip), vehicle: carboxymethylcellulose (CMC) 119 % of control | endpoint: mean survival time, dose: 16.75 mg/kg/injection, schedule: Q01DX009 (ip), vehicle: carboxymethylcellulose (CMC) 100 % of control | endpoint: mean survival time, dose: 25.0 mg/kg/injection, schedule: Q01DX009 (ip), vehicle: carboxymethylcellulose (CMC) 118 % of control | endpoint: mean survival time, dose: 37.5 mg/kg/injection, schedule: Q01DX009 (ip), vehicle: carboxymethylcellulose (CMC) 124 % of control | endpoint: mean survival time, dose: 75.0 mg/kg/injection, schedule: Q01DX Z (ip), vehicle: carboxymethylcellulose (CMC) 117 % of control | [5] 119 % of control | endpoint: mean survival time, dose: 120.0 mg/kg/injection, schedule: Q01DX015 (ip), vehicle: carboxymethylcellulose (CMC) 96 % of control | endpoint: mean survival time, dose: 178.0 mg/kg/injection, schedule: Q01DX001 (ip), vehicle: carboxymethylcellulose (CMC) 108 % of control | endpoint: mean survival time, dose: 267.0 mg/kg/injection, schedule: Q01DX001 (ip), vehicle: carboxymethylcellulose (CMC) 117 % of control | endpoint: mean survival time, dose: 600.0 mg/kg/injection, schedule: Q01DX001 (ip), vehicle: carboxymethylcellulose (CMC) 123 % of control | endpoint: median survival time, dose: 12.5 mg/kg/injection, schedule: Q01DX011 (ip), vehicle: steriod suspending solution 112 % of control | endpoint: median survival time, dose: 25.0 mg/kg/injection, schedule: Q01DX011 (ip), vehicle: steriod suspending solution 112 % of control
active: endpoint: mean survival time, dose: 100.0 mg/kg/injection, schedule: Q01DX009 (ip), vehicle: carboxymethylcellulose (CMC) 154 % of control | [6] 152 % of control | endpoint: median survival time, dose: 100.0 mg/kg/injection, schedule: Q01DX011 (ip), vehicle: steriod suspending solution 218 % of control

CCCCCCCCCC(=O)c1ccccc1
inactive: endpoint: mean survival time, dose: 100.0 mg/kg/injection, schedule: Q04DX002 (ip), vehicle: Klucel (hydroxypropylcellulose) (HPC) 96 % of control | endpoint: mean survival time, dose: 200.0 mg/kg/injection, schedule: Q04DX002 (ip), vehicle: Klucel (hydroxypropylcellulose) (HPC) 103 % of control | endpoint: mean survival time, dose: 400.0 mg/kg/injection, schedule: Q04DX002 (ip), vehicle: Klucel (hydroxypropylcellulose) (HPC) 100 % of control

CCN(Cc1ccccc1)C(=S)[S-].CCN(Cc1ccccc1)C(=S)[S-].[Zn]
inactive: [1] 91 % of control | [2] 94 % of control | [3] 89 % of control
